According to patent EP4745137A1 (Gluetacs Therapeutics (Shanghai) Co., Ltd., priority 2023, dated 2025):

What was measured:
Vcap = assay: Tumor cell proliferation inhibition (CellTiter-Meiluncell Luminescent Cell Viability Assay), Vcap; conditions: Homo sapiens, 96 h, read-out: inhibitory activity (IC50, nM) against tumor cells proliferation, Vcap
SW620 = assay: Tumor cell proliferation inhibition (CellTiter-Meiluncell Luminescent Cell Viability Assay), SW620; conditions: Homo sapiens, SW-620, 96 h, read-out: inhibitory activity (IC50, nM) against tumor cells proliferation, SW620
Jurkat = assay: Tumor cell proliferation inhibition (CellTiter-Meiluncell Luminescent Cell Viability Assay), Jurkat; conditions: Homo sapiens, 96 h, read-out: inhibitory activity (IC50, nM) against tumor cells proliferation, Jurkat
TMD8 = assay: Tumor cell proliferation inhibition (CellTiter-Meiluncell Luminescent Cell Viability Assay), TMD8; conditions: Homo sapiens, TMD8, 96 h, read-out: inhibitory activity (IC50, nM) against tumor cells proliferation, TMD8
Protocol: (§1) The tumor cells used herein were cultured in a cell culture medium listed in table 2 at 37°C in an incubator with 5% CO2. Prior to experimentation, all cell lines used were correctly identified by STR profiling, and tested negative for mycoplasma contamination using a mycoplasma detection kit through routine screenings.
(§2) On the following day, the test compounds of the present disclosure were subjected to serial dilution. […] Subsequently, 0.5 µL of the test compound dilution was transferred into the 96-well plate containing the cells, with each well containing 100 µL of cell culture medium. […] Into the 96-well plate, the diluted test compounds and corresponding detection reagents were added, resulting in final test compound concentrations of 500 nM and 10 nM, respectively. The experimental procedure is described below using the diluted 2 µM test compound as an example.
(§3) After the cells were treated with the compounds of the present disclosure for a specified period (the treatment durations were shown in Table 3), the cell viability assay reagent was added to the culture medium according to the kit's instructions to determine cell viability. […] All controls were treated using the same procedure as the compounds of the present disclosure. The growth inhibition curves for the compounds of the present disclosure were plotted using Prism GraphPad software, and the IC50 values were calculated therefrom.

CCRF-CEM = assay: Tumor cell proliferation inhibition (CellTiter-Meiluncell Luminescent Cell Viability Assay), CCRF-CEM; conditions: Homo sapiens, 96 h, read-out: inhibitory activity (IC50, nM) against tumor cells proliferation, CCRF-CEM
Protocol: as §1, §2, §3

MGC803 = assay: Tumor cell proliferation inhibition (CellTiter-Meiluncell Luminescent Cell Viability Assay), MGC803; conditions: Homo sapiens, MGC-803, 96 h, read-out: inhibitory activity (IC50, nM) against tumor cells proliferation, MGC803
GSPT1 = molecular target: T1, GSPT1 (Homo sapiens, UniProt P15170+Q96SW2); assay: Western-blot assay of substrate protein degradation in hPBMCs, GSPT1; type: cell-based; conditions: 24 hours of compound treatment, compounds tested at 50 nM and 500 nM (concentration of the table not stated)
T1 construct: endogenous in cells; host or cells: hPBMCs (Milecell Biotechnologies)

WEE1 = molecular target: T2, WEE1 (Homo sapiens, UniProt P30291+Q96SW2); assay: Western-blot assay of substrate protein degradation in hPBMCs, WEE1; type: cell-based; conditions: 24 hours of compound treatment, compounds tested at 50 nM and 500 nM (concentration of the table not stated)
T2 construct: endogenous in cells; host or cells: hPBMCs (Milecell Biotechnologies)

[1] = molecular target: T3, human Cereblon WT GST-tagged protein (Homo sapiens, UniProt Q96SW2); assay: CRBN-binding affinity by HTRF (CEREBLON BINDING kit); conditions: HTRF inhibitory activity, CEREBLON BINDING kit; read-out: HTRF IC50
T3 construct: purchased CISBIO 64BDCRBNPEH

IKZF2 = molecular target: T4, IKZF2 (Homo sapiens, UniProt Q96SW2+Q9UKS7); assay: Western-blot assay of substrate protein degradation in hPBMCs, IKZF2; type: cell-based; conditions: 24 hours of compound treatment, compounds tested at 50 nM and 500 nM (concentration of the table not stated)
T4 construct: endogenous in cells; host or cells: hPBMCs (Milecell Biotechnologies)

IKZF3 = molecular target: T5, IKZF3 (Homo sapiens, UniProt Q96SW2+Q9UKT9); assay: Western-blot assay of substrate protein degradation in hPBMCs, IKZF3; type: cell-based; conditions: 24 hours of compound treatment, compounds tested at 50 nM and 500 nM (concentration of the table not stated)
T5 construct: endogenous in cells; host or cells: hPBMCs (Milecell Biotechnologies)

CAL-62 = assay: Tumor cell proliferation inhibition (CellTiter-Meiluncell Luminescent Cell Viability Assay), CAL-62; conditions: Homo sapiens, CAL-62, 96 h, read-out: inhibitory activity (IC50, nM) against tumor cells proliferation, CAL-62
IKZF1 = molecular target: T6, IKZF1 (Homo sapiens, UniProt Q13422+Q96SW2); assay: Western-blot assay of substrate protein degradation in hPBMCs, IKZF1; type: cell-based; conditions: 24 hours of compound treatment, compounds tested at 50 nM and 500 nM (concentration of the table not stated)
T6 construct: endogenous in cells; host or cells: hPBMCs (Milecell Biotechnologies)

CK1α = molecular target: T7, CK1α (Homo sapiens, UniProt P48729+Q96SW2); assay: Western-blot assay of substrate protein degradation in hPBMCs, CK1α; type: cell-based; conditions: 24 hours of compound treatment, compounds tested at 50 nM and 500 nM (concentration of the table not stated)
T7 construct: endogenous in cells; host or cells: hPBMCs (Milecell Biotechnologies)

[2] = test system: Human acute T lymphocytic leukemia cells (Molt-4); assay: Tumor cell proliferation inhibition (CellTiter-Meiluncell Luminescent Cell Viability Assay), Molt-4; conditions: MOLT-4, 96 h, read-out: inhibitory activity (IC50, nM) against tumor cells proliferation, Molt 4
[3] = test system: Human breast cancer cells (MDA-MB-231); assay: Tumor cell proliferation inhibition (CellTiter-Meiluncell Luminescent Cell Viability Assay), MDA-MB-231; conditions: MDA-MB-231, 96 h, read-out: inhibitory activity (IC50, nM) against tumor cells proliferation, MDA-MB-231
NCI-H1975 = assay: Tumor cell proliferation inhibition (CellTiter-Meiluncell Luminescent Cell Viability Assay), NCI-H1975; conditions: Homo sapiens, NCI-H1975, 96 h, read-out: inhibitory activity (IC50, nM) against tumor cells proliferation, H1975
MM.1R = assay: Tumor cell proliferation inhibition (CellTiter-Meiluncell Luminescent Cell Viability Assay), MM.1R; conditions: Homo sapiens, 96 h, read-out: inhibitory activity (IC50, nM) against tumor cells proliferation, MM.1R

T4 sequence (Q9UKS7 whole entry): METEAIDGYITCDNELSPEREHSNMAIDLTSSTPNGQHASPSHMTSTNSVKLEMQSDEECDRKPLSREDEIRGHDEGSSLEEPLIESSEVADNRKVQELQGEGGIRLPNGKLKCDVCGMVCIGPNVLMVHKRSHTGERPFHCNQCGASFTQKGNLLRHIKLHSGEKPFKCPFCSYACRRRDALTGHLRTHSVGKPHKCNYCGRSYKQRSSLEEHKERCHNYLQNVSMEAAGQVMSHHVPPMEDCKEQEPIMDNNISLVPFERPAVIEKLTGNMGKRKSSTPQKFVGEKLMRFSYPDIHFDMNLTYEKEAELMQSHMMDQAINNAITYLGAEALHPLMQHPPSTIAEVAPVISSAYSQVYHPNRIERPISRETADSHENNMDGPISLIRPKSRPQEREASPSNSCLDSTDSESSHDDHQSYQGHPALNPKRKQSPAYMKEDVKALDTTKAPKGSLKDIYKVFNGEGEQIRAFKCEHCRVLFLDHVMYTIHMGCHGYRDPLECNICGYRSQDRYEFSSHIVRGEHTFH
T4 sequence (Q96SW2 whole entry): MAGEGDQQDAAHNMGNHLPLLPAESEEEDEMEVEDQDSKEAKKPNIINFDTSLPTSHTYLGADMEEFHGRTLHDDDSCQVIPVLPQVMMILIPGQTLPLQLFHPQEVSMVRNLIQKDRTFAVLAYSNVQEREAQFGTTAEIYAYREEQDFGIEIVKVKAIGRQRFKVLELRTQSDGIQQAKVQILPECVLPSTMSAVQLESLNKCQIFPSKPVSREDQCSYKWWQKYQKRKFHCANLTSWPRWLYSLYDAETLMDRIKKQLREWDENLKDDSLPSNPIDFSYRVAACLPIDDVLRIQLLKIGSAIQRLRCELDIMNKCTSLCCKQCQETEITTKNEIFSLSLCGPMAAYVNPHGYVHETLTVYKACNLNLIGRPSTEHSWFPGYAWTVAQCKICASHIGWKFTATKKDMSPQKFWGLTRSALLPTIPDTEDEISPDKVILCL
T4 sequence (Q16531 whole entry partner): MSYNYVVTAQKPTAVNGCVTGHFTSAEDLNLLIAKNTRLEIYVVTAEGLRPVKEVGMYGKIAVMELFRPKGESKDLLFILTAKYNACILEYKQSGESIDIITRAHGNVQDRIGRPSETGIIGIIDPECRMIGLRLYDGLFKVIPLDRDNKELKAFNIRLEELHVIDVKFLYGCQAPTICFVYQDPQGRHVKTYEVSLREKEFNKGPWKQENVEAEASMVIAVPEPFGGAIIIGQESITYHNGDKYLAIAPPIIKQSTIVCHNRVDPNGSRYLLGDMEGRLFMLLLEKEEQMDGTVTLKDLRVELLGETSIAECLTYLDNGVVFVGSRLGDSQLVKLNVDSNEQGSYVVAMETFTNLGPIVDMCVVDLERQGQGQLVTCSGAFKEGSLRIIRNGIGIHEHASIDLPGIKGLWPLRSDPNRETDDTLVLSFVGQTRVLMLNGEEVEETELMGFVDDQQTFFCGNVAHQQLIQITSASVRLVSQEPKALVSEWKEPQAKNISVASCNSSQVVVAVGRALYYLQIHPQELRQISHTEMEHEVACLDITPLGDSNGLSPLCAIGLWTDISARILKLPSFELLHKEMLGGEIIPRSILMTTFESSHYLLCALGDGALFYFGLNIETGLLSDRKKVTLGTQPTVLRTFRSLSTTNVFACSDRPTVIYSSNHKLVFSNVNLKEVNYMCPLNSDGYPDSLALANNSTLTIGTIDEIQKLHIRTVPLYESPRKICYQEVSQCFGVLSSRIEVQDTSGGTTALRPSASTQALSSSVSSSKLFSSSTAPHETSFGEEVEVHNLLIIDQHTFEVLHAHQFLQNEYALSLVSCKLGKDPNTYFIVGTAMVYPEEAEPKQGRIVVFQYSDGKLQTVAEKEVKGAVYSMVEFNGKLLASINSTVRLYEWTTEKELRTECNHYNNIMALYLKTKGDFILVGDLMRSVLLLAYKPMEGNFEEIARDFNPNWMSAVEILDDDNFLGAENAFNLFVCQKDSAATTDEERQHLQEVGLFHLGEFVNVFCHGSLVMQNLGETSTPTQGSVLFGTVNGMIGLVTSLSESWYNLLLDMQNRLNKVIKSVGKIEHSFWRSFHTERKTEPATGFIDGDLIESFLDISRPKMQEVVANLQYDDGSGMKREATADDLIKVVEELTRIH
T6 sequence (Q13422 whole entry): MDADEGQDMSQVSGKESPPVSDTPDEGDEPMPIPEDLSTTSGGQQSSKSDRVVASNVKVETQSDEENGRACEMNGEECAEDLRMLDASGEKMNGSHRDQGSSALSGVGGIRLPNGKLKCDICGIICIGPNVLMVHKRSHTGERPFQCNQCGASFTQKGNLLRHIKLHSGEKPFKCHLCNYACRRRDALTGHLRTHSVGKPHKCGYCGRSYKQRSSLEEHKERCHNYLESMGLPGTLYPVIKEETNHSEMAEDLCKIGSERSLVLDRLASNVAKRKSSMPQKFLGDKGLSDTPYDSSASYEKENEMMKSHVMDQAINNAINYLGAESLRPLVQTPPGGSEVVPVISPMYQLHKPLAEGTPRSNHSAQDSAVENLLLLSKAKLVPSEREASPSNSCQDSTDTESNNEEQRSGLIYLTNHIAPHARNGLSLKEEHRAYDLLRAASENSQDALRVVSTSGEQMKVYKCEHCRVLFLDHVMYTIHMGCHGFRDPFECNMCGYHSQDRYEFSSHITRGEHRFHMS
T6 sequence (Q96SW2 whole entry): as the sequence (Q96SW2 whole entry) above
T6 sequence (Q16531 whole entry partner): as the sequence (Q16531 whole entry partner) above
T1 sequence (P15170 whole entry): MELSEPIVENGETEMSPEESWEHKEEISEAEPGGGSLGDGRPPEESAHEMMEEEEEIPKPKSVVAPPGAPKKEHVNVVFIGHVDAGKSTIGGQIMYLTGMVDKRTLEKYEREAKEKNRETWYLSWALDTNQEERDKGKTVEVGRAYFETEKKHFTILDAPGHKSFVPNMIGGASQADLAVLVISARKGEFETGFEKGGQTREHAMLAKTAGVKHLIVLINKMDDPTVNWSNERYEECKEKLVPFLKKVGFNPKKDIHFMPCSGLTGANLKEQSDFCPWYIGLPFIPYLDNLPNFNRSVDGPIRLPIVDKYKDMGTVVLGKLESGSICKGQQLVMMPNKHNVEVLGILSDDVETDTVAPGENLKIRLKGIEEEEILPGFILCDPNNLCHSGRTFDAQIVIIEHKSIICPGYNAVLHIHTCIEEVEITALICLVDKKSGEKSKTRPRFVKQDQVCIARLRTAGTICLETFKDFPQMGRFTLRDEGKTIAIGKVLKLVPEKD
T1 sequence (Q96SW2 whole entry): as the sequence (Q96SW2 whole entry) above
T1 sequence (Q16531 whole entry partner): as the sequence (Q16531 whole entry partner) above
T2 sequence (P30291 whole entry): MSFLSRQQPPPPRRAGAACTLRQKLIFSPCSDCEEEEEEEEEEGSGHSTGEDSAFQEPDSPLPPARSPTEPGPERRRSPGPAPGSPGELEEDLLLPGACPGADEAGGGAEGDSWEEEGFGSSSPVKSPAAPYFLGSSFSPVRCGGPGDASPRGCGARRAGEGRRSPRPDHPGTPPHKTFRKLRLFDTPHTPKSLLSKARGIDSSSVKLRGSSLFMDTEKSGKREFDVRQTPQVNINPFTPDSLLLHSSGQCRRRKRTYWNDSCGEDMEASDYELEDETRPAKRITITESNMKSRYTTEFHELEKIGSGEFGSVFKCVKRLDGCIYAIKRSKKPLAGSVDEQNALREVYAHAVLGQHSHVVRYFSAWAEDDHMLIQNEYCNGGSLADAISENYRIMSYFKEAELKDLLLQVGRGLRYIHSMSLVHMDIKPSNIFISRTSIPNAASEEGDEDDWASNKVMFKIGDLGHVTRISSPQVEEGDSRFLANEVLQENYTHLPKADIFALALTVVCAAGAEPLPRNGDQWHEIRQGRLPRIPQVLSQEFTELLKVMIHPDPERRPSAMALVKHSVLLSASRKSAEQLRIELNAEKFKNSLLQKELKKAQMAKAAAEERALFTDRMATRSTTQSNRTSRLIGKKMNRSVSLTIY
T2 sequence (Q96SW2 whole entry): as the sequence (Q96SW2 whole entry) above
T2 sequence (Q16531 whole entry partner): as the sequence (Q16531 whole entry partner) above
T7 sequence (P48729 whole entry): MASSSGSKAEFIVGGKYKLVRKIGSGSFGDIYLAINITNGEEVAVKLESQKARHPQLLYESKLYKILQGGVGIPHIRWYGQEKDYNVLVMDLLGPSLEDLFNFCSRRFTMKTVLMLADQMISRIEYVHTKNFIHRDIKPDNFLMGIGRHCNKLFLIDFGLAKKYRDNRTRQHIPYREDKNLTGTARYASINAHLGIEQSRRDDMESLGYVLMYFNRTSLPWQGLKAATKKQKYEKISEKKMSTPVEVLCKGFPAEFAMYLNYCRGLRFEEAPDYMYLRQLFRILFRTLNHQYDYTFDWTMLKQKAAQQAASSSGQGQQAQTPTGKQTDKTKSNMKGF
T7 sequence (Q96SW2 whole entry): as the sequence (Q96SW2 whole entry) above
T7 sequence (Q16531 whole entry partner): as the sequence (Q16531 whole entry partner) above
T3 sequence (Q96SW2 whole entry): as the sequence (Q96SW2 whole entry) above

Row | Structure (SMILES) | IC50 (Vcap) [nM] | IC50 (SW620) [nM] | IC50 (Jurkat) [nM] | IC50 (TMD8) [nM] | IC50 (CCRF-CEM) [nM] | IC50 (MGC803) [nM] | IC50 [1] [nM] | IC50 (CAL-62) [nM] | IC50 [2] [nM] | IC50 [3] [nM] | IC50 (NCI-H1975) [nM] | IC50 (MM.1R) [nM] | GSPT1 substrate protein remaining % (GSPT1) | Weel substrate protein remaining % (WEE1) | IKZF2 substrate protein remaining % (IKZF2) | IKZF3 substrate protein remaining % (IKZF3) | IKZF 1 substrate protein remaining % (IKZF1) | CK1a substrate protein remaining % (CK1α)
1 | O=C1CCC(N2Cc3cc(CN4CCN(c5cccc(C(F)(F)F)n5)CC4)ccc3C2=O)C(=O)N1 (stereo not drawn) [GT-04432, 3-(1-oxo-5-((4-(6-(trifluoromethyl)pyridin-2-yl)piperazin-1-yl)methyl)isoindolin-2-yl)piperidine-2,6-dione] | 10 to 50 | 100 to 500 | 1 to 5 |  | 5 to 10 | 100 to 500 | 500 to 1000 | 10 to 50 | 5 to 10 | 500 to 1000 | 100 to 500 | 5 to 10 | A (0% ≤ substrate protein remaining % ≤ 80%) | A (0% ≤ substrate protein remaining % ≤ 80%) | A (0% ≤ substrate protein remaining % ≤ 80%) | A (0% ≤ substrate protein remaining % ≤ 80%) | A (0% ≤ substrate protein remaining % ≤ 80%) | B (80%< substrate protein remaining %≤ 100%)
2 | Cc1ccc(Cl)cc1N1CCN(Cc2ccc3c(c2)CN(C2CCC(=O)NC2=O)C3=O)CC1 (stereo not drawn) [GT-04440, 3-(5-((4-(5-chloro-2-methylphenyl)piperazin-1-yl)methyl)-1-oxoisoindolin-2-yl)piperidine-2,6-dione] | 50 to 100 | 500 to 1000 | 10 to 50 |  | 10 to 50 | 500 to 1000 | 500 to 1000 | 10 to 50 | 5 to 10 | 500 to 1000 | 500 to 1000 | 10 to 50 | A (0% ≤ substrate protein remaining % ≤ 80%) | A (0% ≤ substrate protein remaining % ≤ 80%) | A (0% ≤ substrate protein remaining % ≤ 80%) | A (0% ≤ substrate protein remaining % ≤ 80%) | A (0% ≤ substrate protein remaining % ≤ 80%) | A (0% ≤ substrate protein remaining % ≤ 80%)
3 | O=C1CCC(N2Cc3cc(CN4CCC(c5ccccc5)CC4)ccc3C2=O)C(=O)N1 (stereo not drawn) [GT-04465, 3-(1-oxo-5-((4-phenylpiperidin-1-yl)methyl)isoindolin-2-yl)piperidine-2,6-dione] | 50 to 100 | 100 to 500 | 10 to 50 |  | 10 to 50 | 100 to 500 | 1000 to 1500 | 10 to 50 | 10 to 50 |  | 500 to 1000 | 10 to 50 | A (0% ≤ substrate protein remaining % ≤ 80%) | A (0% ≤ substrate protein remaining % ≤ 80%) | A (0% ≤ substrate protein remaining % ≤ 80%) | A (0% ≤ substrate protein remaining % ≤ 80%) | A (0% ≤ substrate protein remaining % ≤ 80%) | A (0% ≤ substrate protein remaining % ≤ 80%)
4 | O=C1CCC(N2Cc3cc(CN4CCC(c5ccc(Cl)cc5)CC4)ccc3C2=O)C(=O)N1 (stereo not drawn) [GT-04469, 3-(5-((4-(4-chlorophenyl)piperidin-1-yl)methyl)-1-oxoisoindolin-2-yl)piperidine-2,6-dione] | 50 to 100 | 500 to 1000 | 10 to 50 |  | 5 to 10 | 500 to 1000 | 500 to 1000 | 10 to 50 | 10 to 50 |  |  | 10 to 50 | A (0% ≤ substrate protein remaining % ≤ 80%) | A (0% ≤ substrate protein remaining % ≤ 80%) | A (0% ≤ substrate protein remaining % ≤ 80%) | A (0% ≤ substrate protein remaining % ≤ 80%) | A (0% ≤ substrate protein remaining % ≤ 80%) | A (0% ≤ substrate protein remaining % ≤ 80%)

Further lines, with some results ahead:

Row | IC50 (Vcap) [nM] | IC50 (SW620) [nM] | IC50 (Jurkat) [nM] | IC50 (TMD8) [nM] | IC50 (CCRF-CEM) [nM] | IC50 (MGC803) [nM] | IC50 [1] [nM] | IC50 (CAL-62) [nM] | IC50 [2] [nM] | IC50 [3] [nM] | IC50 (NCI-H1975) [nM] | IC50 (MM.1R) [nM] | Structure (SMILES) | GSPT1 substrate protein remaining % (GSPT1) | Weel substrate protein remaining % (WEE1) | IKZF2 substrate protein remaining % (IKZF2) | IKZF3 substrate protein remaining % (IKZF3) | IKZF 1 substrate protein remaining % (IKZF1) | CK1a substrate protein remaining % (CK1α)
5 | 5 to 10 | 50 to 100 | 1 to 5 | 10 to 50 | 1 to 5 | 10 to 50 | 1000 to 1500 | 1 to 5 |  |  |  |  | O=C1CCC(N2Cc3cc(CN4CCN(c5cccc(Cl)c5Cl)CC4)ccc3C2=O)C(=O)N1 (stereo not drawn) [GT-04201, 3-(5-((4-(2,3-dichlorophenyl)piperazin-1-yl)methyl)-1-oxoisoindolin-2-yl)piperidine-2,6-dione] | A (0% ≤ substrate protein remaining % ≤ 80%) | A (0% ≤ substrate protein remaining % ≤ 80%) | A (0% ≤ substrate protein remaining % ≤ 80%) | B (80%< substrate protein remaining %≤ 100%) | B (80%< substrate protein remaining %≤ 100%) | A (0% ≤ substrate protein remaining % ≤ 80%)
6 | 50 to 100 | 100 to 500 | 10 to 50 |  | 10 to 50 |  | 500 to 1000 | 10 to 50 | 10 to 50 |  | 500 to 1000 | 10 to 50 | O=C1CCC(N2Cc3cc(CN4CCN(c5ccc(F)cc5F)CC4)ccc3C2=O)C(=O)N1 (stereo not drawn) [GT-04438, 3-(5-((4-(2,4-difluorophenyl)piperazin-1-yl)methyl)-1-oxoisoindolin-2-yl)piperidine-2,6-dione] | A (0% ≤ substrate protein remaining % ≤ 80%) | A (0% ≤ substrate protein remaining % ≤ 80%) | A (0% ≤ substrate protein remaining % ≤ 80%) | A (0% ≤ substrate protein remaining % ≤ 80%) | A (0% ≤ substrate protein remaining % ≤ 80%) | A (0% ≤ substrate protein remaining % ≤ 80%)
7 | 50 to 100 | 100 to 500 | 10 to 50 |  | 10 to 50 | 500 to 1000 | 1000 to 1500 | 10 to 50 | 10 to 50 | 500 to 1000 | 100 to 500 | 10 to 50 | COc1cccc(N2CCN(Cc3ccc4c(c3)CN(C3CCC(=O)NC3=O)C4=O)CC2)c1 (stereo not drawn) [GT-04448, 3-(5-((4-(3-methoxyphenyl)piperazin-1-yl)methyl)-1-oxoisoindolin-2-yl)piperidine-2,6-dione] | A (0% ≤ substrate protein remaining % ≤ 80%) | A (0% ≤ substrate protein remaining % ≤ 80%) | A (0% ≤ substrate protein remaining % ≤ 80%) | A (0% ≤ substrate protein remaining % ≤ 80%) | A (0% ≤ substrate protein remaining % ≤ 80%) | A (0% ≤ substrate protein remaining % ≤ 80%)
